This is an account of results in patent US20180353501A1 (Arvinas, Inc., priority 2017, published 2018).

The target in one assay is T1, p38δ (Homo sapiens, UniProt O15264).
T1 construct: endogenous in cells; host or cells: MDA-MB-231 (intact cells for degradation; cleared cell lysate for CETSA)
T1 sequence (O15264 1-365): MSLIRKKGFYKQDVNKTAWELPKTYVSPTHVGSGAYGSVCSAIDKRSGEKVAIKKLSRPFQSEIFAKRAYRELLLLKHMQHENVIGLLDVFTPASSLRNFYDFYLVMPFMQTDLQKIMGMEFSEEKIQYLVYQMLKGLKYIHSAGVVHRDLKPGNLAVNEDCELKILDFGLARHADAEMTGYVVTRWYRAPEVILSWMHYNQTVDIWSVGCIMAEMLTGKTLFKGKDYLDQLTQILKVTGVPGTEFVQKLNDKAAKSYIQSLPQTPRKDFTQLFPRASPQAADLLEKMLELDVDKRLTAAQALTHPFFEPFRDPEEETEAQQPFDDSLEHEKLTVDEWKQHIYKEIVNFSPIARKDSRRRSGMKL
Nature of the assay: Cellular thermal shift assay (CETSA), MDA-MB-231 cell lysate. Type of assay: cell-based. Particulars: 100 μM, 30 minutes, 51-55° C., vs DMSO. How it is done: FIGS. 17A and 17B. […] (A) Cellular thermal shift assay (CETSA) was conducted in MDA-MB-231 cells as a means to monitor cellular target engagement. Cell lysate was incubated with either vehicle (DMSO), exemplary compound 50 (100 μM), or exemplary compound 46 (100 μM) for 30 minutes prior to melting at the indicated temperatures. Assay was performed in duplicate and western blots of p38δ and α-tubulin (negative control) are shown. (B) Raw band intensities from (A) were measured, averaged, and reported (with SD) with increasing temperature (51-55° C.) from left-to-right. Top: p38δ CETSA analysis. […] Bottom: α-tubulin CETSA analysis.
(§1) To further assess these findings, a more biologically-relevant context for measuring ternary complex formation was used. […] Thus, whether PROTAC-induced PPIs could be monitored in a complex cellular environment using CETSA was examined. […]
CETSA protocol was adapted from (Mateus A, Maatta T A, & Savitski M M (2016) Thermal proteome profiling: unbiased assessment of protein state through heat-induced stability changes. Proteome Sci 15:13). […] After cooling, samples were spun down for 20 minutes (14,000×g at 4° C.) and the supernatant (soluble fraction) was analyzed by SDS-PAGE and immunoblotted for p38δ and alpha-tubulin (negative control).

The target in another assay is T2, endogenous p38δ (Homo sapiens, UniProt O15264+P40337).
T2 construct: GST-VBC was immobilized on glutathione sepharose beads and incubated with MDA-MB-231 whole cell lysate (WCL); endogenous in cells; host or cells: MDA-MB-231 whole cell lysate (p38δ); GST-VBC bait made in E. coli BL21(DE3)
Nature of the assay: Ternary complex pull-down from MDA-MB-231 whole cell lysate with GST-VBC bait. Type of assay: binding.
Description: FIGS. 15A, 15B, and 15C. Differential p38δ:PROTAC:VHL ternary complex affinities result in distinct cellular ubiquitination outcomes. (A) Both exemplary compound 50 and 46 pull-down p38δ in vitro, however compound 46 maintains ternary complex at lower concentrations. As in FIG. 14A, GST-tagged VBC was used as a bait to trap recombinant p38δ in the presence of vehicle (DMSO) or the indicated concentrations of compound 50 or 46. The rightmost lane represents a 1:25 dilution of initial input protein used in each pull-down. […] GST-VBC was immobilized on glutathione sepharose beads and incubated with MDA-MB-231 whole cell lysate (WCL) in the presence of vehicle (DMSO) or the indicated concentrations of compound 50 or 46. Beads were washed and “trapped” proteins (i.e. those that engage in a ternary complex) were eluted with SDS sample buffer and separated by SDS-PAGE. Samples were assessed by western blot and CUL2 and α-tubulin serve as positive and negative GST-VBC immunoprecipitation controls, respectively. […] FLAGimmunoprecipitated lysates were separated by SDS-PAGE and assessed via western blots detecting HA (Ub). […]
as §1

The structures appear in SMILES notation.

T2 sequence (P40337 whole entry, one chain of several): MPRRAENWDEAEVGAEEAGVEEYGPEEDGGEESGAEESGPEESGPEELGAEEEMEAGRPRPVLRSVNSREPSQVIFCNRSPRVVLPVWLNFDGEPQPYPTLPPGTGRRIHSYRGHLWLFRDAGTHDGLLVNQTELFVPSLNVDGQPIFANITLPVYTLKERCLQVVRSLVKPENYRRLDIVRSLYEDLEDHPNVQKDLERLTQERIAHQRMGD
T2 sequence (Q15370 whole entry partner, one chain of several): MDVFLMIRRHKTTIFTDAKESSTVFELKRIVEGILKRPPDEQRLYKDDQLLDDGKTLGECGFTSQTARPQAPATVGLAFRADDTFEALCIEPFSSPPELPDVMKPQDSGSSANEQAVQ
T2 sequence (Q15369 whole entry partner, one chain of several): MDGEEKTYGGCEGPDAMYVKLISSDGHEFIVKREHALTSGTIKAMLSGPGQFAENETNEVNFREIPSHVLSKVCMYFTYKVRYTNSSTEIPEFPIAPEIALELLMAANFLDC

Consider `COc1cc2c(Oc3ccc(NC(=O)C4(C(=O)Nc5ccc(F)cc5)CC4)cc3F)ccnc2cc1OCCOCCOCCOc1cc(-c2scnc2C)ccc1CNC(=O)[C@@H]1C[C@@H](O)CN1C(=O)[C@H](C(C)C)N1Cc2ccccc2C1=O` [compound 46], for which, at p38δ, the “thermal shift in the p38δ melting profile” value is on record as “more pronounced at each melting temperature tested”. For the same molecule, the “enrichment of endogenous p38δ from whole cell lysate on GST-VBC bait” value at endogenous p38δ is “strongly enrich for endogenous p38δ in a dose-dependent manner”.

`COc1cc2c(Oc3ccc(NC(=O)C4(C(=O)Nc5ccc(F)cc5)CC4)cc3F)ccnc2cc1OCCCCOCCCCOCC(=O)N[C@H](C(=O)N1C[C@H](O)C[C@H]1C(=O)NCc1ccc(-c2scnc2C)cc1)C(C)(C)C` [compound 50, N-(3-fluoro-4-((7-(4-(4-(2-(((S)-1-((2S,4R)-4-hydroxy-2-((4-(4-methylthiazol-5-yl)benzyl)carbamoyl)pyrrolidin-1-yl)-3,3-dimethyl-1-oxobutan-2-yl)amino)-2-oxoethoxy)butoxy)buto-xy)-6-methoxyquinolin-4-yl)oxy)phenyl)-N-(4-fluorophenyl)cyclopropane-1,1-dicarboxa-mide]: the “thermal shift in the p38δ melting profile” value at p38δ is “small, but statistically-significant (p=0.0121) thermal shift”. Besides, the “enrichment of endogenous p38δ from whole cell lysate on GST-VBC bait” value at endogenous p38δ is on record as “greatly reduced”.
